Measurements: patent publication US20220380331A1, “TREATMENT OF CONDITIONS OF THE NERVOUS SYSTEM” (priority 2019, published 2022)

Experiments:
[1] = system: PNNs in the spinal cord; experiment: Short-term (10 days) PNNi administration, histology of PNN/ECM components in the CNS; type: in vivo, rat
Experimental: Animals were given an overdose of sodium pentobarbital (Pentoject; Henry Schein; 200 mg/kg; intraperitoneal injection) to deeply […] without halting cardiac function. A transcardial perfusion (Gage et al., 2012) was then performed using sodium phosphate buffer (PB; 0.12 M sodium phosphate monobasic; 0.1 M NaOH; pH 7.4) followed by 4% paraformaldehyde (PFA; in PB; pH 7.4) for tissue fixation. The brain and spinal cord were dissected out, post-fixed in PFA (4%; 4° C.) overnight and cryoprotected in 30% sucrose solution (30% v/w sucrose in PB; 4° C.) until tissue saturation. The left brain hemisphere and appropriate spinal cord segments were excised and frozen in optimum temperature medium (OCT; Leica FSC 22 Frozen Section Media; Leica Biosystems) before storage at -80° C. until sectioning. Sectioning of tissue was performed using a cryostat (Leica CM1850; Leica Biosystems) into 40 μm transverse sections for free-floating sections and collected into 48-well plates containing physiological buffer solution (PBS; 0.13 M sodium chloride, […], 0.003 M sodium phosphate monobasic; pH 7.4) to remove the OCT before being transferred to 30% sucrose solution for storage at 4° C. At room temperature (RT), sections were washed three times for 5 min each in Tris-buffered saline (TBS; 0.1 M tris base, 0.15 M NaCl; pH 7.4) to remove sucrose residue. Tissue was then blocked in 0.3% TBST (1×TBS solution and 0.3% v/v Triton X-100) and 3% normal donkey serum (NDS; v/v) for two hours. The sections were then transferred to co-incubate at 4° C. in blocking buffer (3% NDS in 0.3% TBST; pH 7.4) containing primary antibodies. Following primary antibody or lectin incubation, sections were then washed thrice using TBS (10 mins; RT). To visualise each primary antibody staining, the tissue was then co-incubated in darkness with the fluorescent-conjugated secondary antibodies (1:500; 2 hrs; RT) against the species of the primary antibodies. Tissues were then washed three times in TBS (10 mins; RT) whilst protected from light. A final wash in Tris non-saline (TNS; 0.5 M Tris, pH 7.6) was given to reduce precipitation before air-drying. Tissues were mounted on Superfrost Plus slides, air-dried and coverslipped with the mounting medium FluorSaveTM Reagent (EMD Millipore). Lectins: biotinylated Wisteria floribunda agglutinin (bio-WFA), biotinylated hyaluronan binding protein (bHABP). […] PNNi treatment was consequently investigated in vivo, with short-term administration (10 days) via either oral feeding or intraperitoneal (i.p.) injection twice daily. […] Quantification in the dorsal horn of the spinal cord illustrated that ten days of oral PNNi administration induced a partial removal of WFA-positive moieties to 71.0±7.20% of baseline ECM levels (t(3)=5.15, p=0.0142; FIG. 9P). […] As oral PNNi treatment is both non-invasive and generated sufficient effects on the neural ECM in vivo, the following PNNi dosing experiments with Lister Hooded rats used this method of administration.

[2] = system: PNN-HEK293 cells; experiment: Immunocytochemistry of PNN formation (WFA) with PNNi analogues; type: cell-based, human
Experimental: To compare the efficacy of PNNi, JD009, and JD013 in reducing PNN formation, immunocytochemistry was conducted using the N-acetylgalactosamine-binding lectin WFA to label PNNs. PNN-HEK293 cells were exposed to 0.5 mM and 1 mM of the compounds for 3 days in vitro. […] Quantification of WFA fluorescence intensity per cell was derived in matched regions of interest (ROI) and normalising overall WFA fluorescence intensity to cell number.

`Cc1cc(=O)oc2cc(O)ccc12` [PNNi, 4-methylumbelliferone] was tested, and the “WFA-positive moieties, of baseline ECM levels” value ([1]; dorsal horn of the spinal cord, ten days oral) was 71.0±7.20%, the “HAPLN-1 staining, of baseline levels” value ([1]; dorsal horn, short-term oral) was 68.3±8.09% and the “staining with HA binding protein (HABP), of baseline levels” value ([1]; dorsal horn, short-term oral) was 64.0±5.84%. The “PNNs (ACAN staining, HABP) after 10 days oral administration in intact rats” value ([1]; intact rats, 10 days oral) was “PNNs are reduced”, the “WFA-positive binding throughout the CNS compared to non-treated animals” value ([1]; ten days dosing, oral feeding or i.p. injection twice daily) was “sufficient in decreasing WFA-positive binding” and the “chondroitin sulphate and hyaluronan in the spinal cord” value ([1]; ten-day non-invasive oral administration) was “down-regulates both chondroitin sulphate and hyaluronan”. The “PNN morphology and expression (WFA fluorescence intensity per cell)” value ([2]; 0.5 mM and 1 mM, 3 days in vitro) was “insufficient to cause substantial changes in PNN morphology and expression” and the “PNN morphology and expression (WFA staining intensity)” value ([2]; 1 mM and 2 mM (FIG. 14 legend)) was “insufficient to cause substantial changes in PNN morphology and expression”.
